# Results from US20030215462A1, “Use of UGT inhibitors to increase bioavailability” (priority 2001, published 2003).
# Several values for one entry are separate records, joined by “and”; a condition that tells them apart may be missing. Equal entries are not always repeated.
# Legend:
# [1] = test system: T1, UGT enzymes of human liver microsomes; assay: Inhibition of labetalol glucuronidation (LG1, LG2) in human liver microsomes; assay type: biochemical; details: labetalol 50 μM
# T1 construct: residual metabolism (percentage of control), labetalol LG1; other: labetalol 50 μM; residual metabolism (percentage of control), labetalol LG1; residual metabolism (percentage of control), labetalol LG2; inhi
# [2] = molecular target: T2, UGT1A9 (Homo sapiens, UniProt O60656); assay: Inhibition of raloxifene glucuronidation by recombinant UGT1A9 Supersomes; details: for activity at 15 min, 10 µM / activity at 15 min, 25 µM / activity at 15 min, 50 µM: human, Supersomes with recombinant human UGT1A9, pH 7.5, probe raloxifene 50 μM; for Inhibition of raloxifene glucuronidation, UGT1A9, second line per inhibitor (G2): second line (G2, metabolite not given), raloxifene 50 μM, 250 μg/ml Supersomes, 1 mM UDPGA, 15 min
# T2 sequence (O60656 26-530): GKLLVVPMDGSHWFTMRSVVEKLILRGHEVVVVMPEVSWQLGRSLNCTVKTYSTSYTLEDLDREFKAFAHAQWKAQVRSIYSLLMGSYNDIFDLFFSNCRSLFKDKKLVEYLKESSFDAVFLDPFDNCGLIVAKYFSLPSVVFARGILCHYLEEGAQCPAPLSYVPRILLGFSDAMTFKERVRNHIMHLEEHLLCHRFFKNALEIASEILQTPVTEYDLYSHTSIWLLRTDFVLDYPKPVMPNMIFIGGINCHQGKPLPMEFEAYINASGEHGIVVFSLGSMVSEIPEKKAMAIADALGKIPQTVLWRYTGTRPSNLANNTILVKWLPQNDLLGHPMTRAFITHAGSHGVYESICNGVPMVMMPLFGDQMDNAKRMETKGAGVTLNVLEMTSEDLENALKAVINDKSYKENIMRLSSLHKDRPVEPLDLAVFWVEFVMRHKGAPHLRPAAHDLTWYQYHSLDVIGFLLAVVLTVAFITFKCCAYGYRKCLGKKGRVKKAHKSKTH
# [3] = test system: UGT enzymes of pooled human jejunum microsomes; assay: Inhibition of estradiol (E2) glucuronidation in pooled human jejunum microsomes; assay type: biochemical; details: jejunum HJ61, E2 50 μM
# Excerpt: (§1) Compounds were eluted using a binary solvent gradient system where solvent A was dilute phosphoric acid (pH 3) and solvent B was 80:20 acetonitrile-methanol. […] Detection was at 280 nm.
# [4] = test system: UGT enzymes of human liver microsomes; assay: Inhibition of estradiol (E2) glucuronidation in human liver microsomes; assay type: biochemical; details: E2 50 μM
# Excerpt: as §1
# [5] = test system: T3, UGT enzymes of human liver microsomes; assay: as above; assay type: biochemical; details: liver 032101, E2 50 μM
# T3 construct: residual metabolism (% of control), E2-3-β-D-glucuronide; other: liver 032101; residual metabolism (% of control), E2-3-β-D-glucuronide
# Excerpt: as §1
# [6] = test system: T4, UGT enzymes of human liver microsomes; assay: as above; assay type: biochemical; details: liver 032101, E2 50 μM
# T4 construct: residual metabolism (% of control), E2-17-β-D-glucuronide; other: liver 032101; residual metabolism (% of control), E2-17-β-D-glucuronide
# Excerpt: as §1
# [7] = molecular target: T5, UGT1A1 (Homo sapiens, UniProt P22309); assay: Inhibition of raloxifene glucuronidation by recombinant UGT1A1 Supersomes; details: UGT1A1
# T5 sequence (P22309 26-533): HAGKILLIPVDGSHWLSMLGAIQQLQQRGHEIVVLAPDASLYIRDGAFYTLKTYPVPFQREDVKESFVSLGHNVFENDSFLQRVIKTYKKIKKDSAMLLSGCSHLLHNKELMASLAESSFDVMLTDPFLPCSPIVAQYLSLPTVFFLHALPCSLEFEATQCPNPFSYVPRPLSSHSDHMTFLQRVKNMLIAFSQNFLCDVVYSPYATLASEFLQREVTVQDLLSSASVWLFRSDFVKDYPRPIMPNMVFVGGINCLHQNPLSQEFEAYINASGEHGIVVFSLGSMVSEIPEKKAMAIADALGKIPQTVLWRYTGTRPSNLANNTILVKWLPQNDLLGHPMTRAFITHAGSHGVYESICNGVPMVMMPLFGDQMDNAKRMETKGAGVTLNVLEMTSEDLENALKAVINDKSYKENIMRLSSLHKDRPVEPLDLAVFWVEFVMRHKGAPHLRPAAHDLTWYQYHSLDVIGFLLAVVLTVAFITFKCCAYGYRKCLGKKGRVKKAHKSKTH
# Protocol: Compounds were eluted using a binary solvent gradient system. Solvent A was water brought to pH 8 with NH4OH. Solvent B was methanol. Solvent flow rate was 1 ml/min and the column temperature was maintained at 50° C. Detection was at 280 nm. […] The system was then returned to the initial conditions and equilibrated for 3 min.
# [8] = test system: T6, UGT enzymes of human liver microsomes; assay: Inhibition of 7-HFC glucuronidation in human liver microsomes; assay type: biochemical; details: for % of control metabolism (SD, n = 3), 7-HFC glucuronidation: 7-HFC 50 μM, human liver microsomes 100 μg/ml, 15 min
# T6 construct: percentage of control metabolism, 7-HFC glucuronidation; percentage of control metabolism, 7-HFC glucuronidation
# [9] = test system: T7, UGT enzymes of human liver microsomes; assay: Inhibition of 2ME2 glucuronidation (MG1, MG2) in human liver microsomes; assay type: biochemical; details: liver 062101, 2ME2 50 μM
# T7 construct: other: liver 062101
# Excerpt: as §1
# [10] = test system: UGT enzymes of pooled human jejunum microsomes; assay: Inhibition of raloxifene glucuronidation (G1, G2) in pooled human jejunum microsomes; assay type: biochemical; details: jejunum HJ61; inhibitor 50 μM
# Protocol: Compounds were eluted using a binary solvent gradient system. […] Solvent B was methanol. […] Detection was at 280 nm.
# Standardized incubations utilized […] microsomal protein, 1 mM UDPGA and a 30 min incubation time.
smiles,measurement,setting,value
O=c1c(O)c(-c2ccc(O)c(O)c2)oc2cc(O)cc(O)c12 [Quercetin],"residual metabolism (percentage of control), labetalol LG1",[1]; inhibitor 50 μM,78 (4) %
same,"residual metabolism (percentage of control), labetalol LG2",[1]; inhibitor 50 μM,70 (3) %
same,"residual metabolism (percentage of control), labetalol LG1",[1]; inhibitor 100 μM,56 (8) % and 49 (7) %
same,"residual metabolism (percentage of control), labetalol LG2",[1]; inhibitor 100 μM,47 (6) % and 43 (9) %
same,"inhibition of raloxifene glucuronidation, in words",[2]; UGT1A9,good inhibitor
same,"activity at 15 min, 10 µM","[2]; formation of glucuronide G1, % of control metabolism, raloxifene G1, UGT1A9, inhibitor 10 μM",59%
same,"activity at 15 min, 25 µM","[2]; formation of glucuronide G1, % of control metabolism, raloxifene G1, UGT1A9, inhibitor 25 μM",45%
same,"activity at 15 min, 50 µM","[2]; formation of glucuronide G1, % of control metabolism, raloxifene G1, UGT1A9, inhibitor 50 μM",26%
same,"activity at 15 min, 10 µM","[2]; formation of glucuronide G2, % of control metabolism, raloxifene G2, UGT1A9, inhibitor 10 μM",56%
same,"activity at 15 min, 25 µM","[2]; formation of glucuronide G2, % of control metabolism, raloxifene G2, UGT1A9, inhibitor 25 μM",39%
same,"activity at 15 min, 50 µM","[2]; formation of glucuronide G2, % of control metabolism, raloxifene G2, UGT1A9, inhibitor 50 μM",24%
same,"Inhibition of raloxifene glucuronidation, UGT1A9, second line per inhibitor (G2)",[2]; inhibitor 5 μM,85 (5)
same,"Inhibition of raloxifene glucuronidation, UGT1A9, second line per inhibitor (G2)",[2]; inhibitor 10 μM,56 (3)
same,"Inhibition of raloxifene glucuronidation, UGT1A9, second line per inhibitor (G2)",[2]; inhibitor 25 μM,39 (2)
same,"Inhibition of raloxifene glucuronidation, UGT1A9, second line per inhibitor (G2)",[2]; inhibitor 50 μM,24 (2)
same,"residual metabolism (% of control), E2-3-β-D-glucuronide",[3]; inhibitor 25 μM,44 (5) %
same,"residual metabolism (% of control), E2-17-β-D-glucuronide",[3]; inhibitor 25 μM,72 (3) %
same,"residual metabolism (% of control), E2-3-β-D-glucuronide",[3]; inhibitor 50 μM,29 (2) %
same,"residual metabolism (% of control), E2-17-β-D-glucuronide",[3]; inhibitor 50 μM,56 (2) %
same,"residual metabolism (% of control), E2-3-β-D-glucuronide",[3]; inhibitor 100 μM,12 (1) %
same,"residual metabolism (% of control), E2-17-β-D-glucuronide",[3]; inhibitor 100 μM,42 (7) %
same,"residual metabolism (% of control), E2-3-β-D-glucuronide","[4]; liver 032101, inhibitor 25 μM",58 (1) %
same,"residual metabolism (% of control), E2-17-β-D-glucuronide","[4]; liver 032101, inhibitor 25 μM",94 (3) %
same,"residual metabolism (% of control), E2-3-β-D-glucuronide","[4]; liver 062101, inhibitor 25 μM",56 (3) %
same,"residual metabolism (% of control), E2-17-β-D-glucuronide","[4]; liver 062101, inhibitor 25 μM",83 (1) %
same,"residual metabolism (% of control), E2-3-β-D-glucuronide","[4]; liver 062101, inhibitor 50 μM",30 (1) %
same,"residual metabolism (% of control), E2-17-β-D-glucuronide","[4]; liver 062101, inhibitor 50 μM",69 (1) %
same,"residual metabolism (% of control), E2-3-β-D-glucuronide","[4]; liver 062101, inhibitor 100 μM",19 (1) %
same,"residual metabolism (% of control), E2-17-β-D-glucuronide","[4]; liver 062101, inhibitor 100 μM",57 (2) %
same,"residual metabolism (% of control), E2-3-β-D-glucuronide",[5]; inhibitor 50 μM,29 (1) %
same,"residual metabolism (% of control), E2-3-β-D-glucuronide",[5]; inhibitor 100 μM,10 (1) %
same,"residual metabolism (% of control), E2-17-β-D-glucuronide",[6]; inhibitor 50 μM,72 (6) %
same,"residual metabolism (% of control), E2-17-β-D-glucuronide",[6]; inhibitor 100 μM,50 (3) %
same,"inhibition of raloxifene glucuronidation, in words",[7],good inhibitor
same,"percentage of control metabolism, 7-HFC glucuronidation",[8]; inhibitor 100 μM,58 (1) %
same,"% of control metabolism (SD, n = 3), 7-HFC glucuronidation",[8]; inhibitor 100 μM,58 (1) %
same,"percentage of control metabolism, 7-HFC glucuronidation",[8]; inhibitor 200 μM,53 (1) %
same,"% of control metabolism (SD, n = 3), 7-HFC glucuronidation",[8]; inhibitor 200 μM,53 (1) %
same,"percentage of control metabolism, 7-HFC glucuronidation",[8]; inhibitor 500 μM,52 (1) %
same,"% of control metabolism (SD, n = 3), 7-HFC glucuronidation",[8]; inhibitor 500 μM,"52 (1), % and 62 (1) %"
same,"residual metabolism (% of control), 2ME2 MG1",[9]; inhibitor 25 μM,63 (3) %
same,"residual metabolism (% of control), 2ME2 MG2",[9]; inhibitor 25 μM,87 (3) %
same,"residual metabolism (% of control), 2ME2 MG1",[9]; inhibitor 50 μM,30 (4) %
same,"residual metabolism (% of control), 2ME2 MG2",[9]; inhibitor 50 μM,68 (3) %
same,"residual metabolism (% of control), 2ME2 MG1",[9]; inhibitor 100 μM,15 (0) %
same,"residual metabolism (% of control), 2ME2 MG2",[9]; inhibitor 100 μM,50 (2) %
same,"% of control metabolism, raloxifene G1",[10],25 (1) %
same,"% of control metabolism, raloxifene G2",[10],37 (2) %
